As usually defined, the IC50 is the point on the concentration scale where inhibition reaches its midpoint. A lower IC50 goes with greater potency in that assay.

Among the data in PubChem BioAssay AID2305 (GlaxoSmithKline (GSK), 2010) are IC50 values, retold here.

This assay relates to P. falciparum 3D7 growth, pLDH absorbance. The assay can be described thus: P. falciparum 3D7 growth inhibition, dose response, strain 3D7 (AID 2305).

Compound `Cc1ccc2c(c1[N+](=O)[O-])N=NCC2Oc1ccccc1` (configuration not stated) displayed an IC50 of 870 nM.

`COc1cc(-c2nnc(SCC(=O)Nc3cc(C)on3)n2C)cc(OC)c1O` had a half-maximal inhibitory concentration (IC50) of 180 nM.

Consider `CN(CCO)Cc1ccc(-c2ccc(NS(=O)(=O)c3cccc4cccnc34)cc2)cc1`, for which the 50% inhibitory concentration (IC50) is 790 nM.

Turning to `CC(=O)c1sc2ccccc2c1O`, the IC50 was 880 nM.

On to `O=C(Nc1ccc(N2CCCCC2)c(Cl)c1)c1ccc(Br)o1`, for which the IC50 was found to be 550 nM.

In turn, `COc1ccc(C2CC(=O)C3=C(C2)NC(C)=C(C(=O)OC(C)C)C3c2cccc(O)c2)cc1OC` (configuration not stated) returned a concentration for half-maximal inhibition (IC50) of 780 nM.

`COC(=O)/C=C/c1ccc(C[C@@H](C)NC[C@H](O)c2cccc(C(F)(F)F)c2)cc1` returned an IC50 of 730 nM.

The compound `O=C(N[C@@H](CC1CCCCC1)C(=O)NCCN1CCCC1)c1ccc(O)c(-c2ccc(Cl)c(Cl)c2)c1` yielded an IC50 of 310 nM.

In the case of `Cc1ccc(O)c(-c2cc(C(=O)Nc3ccc(S(=O)(=O)N4CCCC(C)C4)cc3)[nH]n2)c1` (configuration not stated), the IC50 was 710 nM.

Compound `CCCc1ccc(NC(=O)c2cccc(CN3CCCN(Cc4cccc(C#N)c4)CC3)c2)cc1` came in with an IC50 of 980 nM.

For the compound `CCC(C)(C)N[C@@H](C)[C@@H](O)c1ccc(C(F)(F)F)cc1`, the IC50 came out at 750 nM.

Compound `CCCCCCN1CCCN(Cc2ccc(C(=O)Nc3ccc(CC)cc3)cc2)CC1` had an IC50 of 760 nM.

As to `N=C(N)c1ccc(C(=O)Nc2cccc(C(=N)N)c2)cc1`, the half-inhibitory concentration (IC50) came to 1040 nM.

In turn, `O=c1c2ccc(F)cc2sn1-c1ccc(Cl)cc1` registered an IC50 of 1150 nM.

As for `Cn1nc(-c2ccc(NC(=O)Nc3cc(C(F)(F)F)ccc3F)cc2)c2cnc(NCCc3cnc[nH]3)nc21`, the IC50 worked out at 810 nM.

The compound `NC(=O)N1CCN(Cc2ccc(Br)cc2)CC1` showed an IC50 of 620 nM.

Regarding `CCCCNC(=O)[C@@H](NC(=O)c1ccc(O)c(-c2ccc(Cl)c(Cl)c2)c1)C(C)C`, the IC50 was 230 nM.

`Cc1ccccc1C1CCN(c2ncc(C(=O)Nc3ccccc3)cc2Cl)CC1` came in with an IC50 of 1010 nM.

With `CCCC(C)N(Cc1ccc(C(C)(C)C)cc1)C(=O)c1cccc(OC)c1` (configuration not stated), the concentration for half-maximal inhibition (IC50) was found to be 340 nM.

For `O=C(Nc1ccc(OC2CCN(Cc3ccc(F)cc3)CC2)c(Cl)c1)c1ccc(F)cc1`, the 50% inhibitory concentration (IC50) amounted to 190 nM.

In turn, `O=C(NC1CCCCC1)N(Cc1ccc(-c2cccc(CNC3CCCC3)c2)cc1)C1CCN(Cc2ccccc2)CC1` registered a half-maximal inhibitory concentration (IC50) of 780 nM.

`O=C(Nc1cccc(CN2CCCN(CCc3ccccc3)CC2)c1)c1cc2ccccc2s1` gave an IC50 of 1130 nM.

Compound `c1ccc(Oc2ccc(Nc3ccnc4cc(-c5ccc(CN6CCNCC6)o5)ccc34)cc2)nc1` gave an IC50 of 240 nM.

`CNC(=O)c1cc(Nc2nnc(-c3ccc(C)c(S(=O)(=O)NC4CCCCC4)c3)c3ccccc23)ccc1OC` showed an IC50 of 900 nM.

Turning to `N#Cc1ccc2c(c1)CN(CCC1CCC(NC(=O)c3cc4cc(OC(F)(F)F)ccc4[nH]3)CC1)CC2` (configuration not stated), the concentration for half-maximal inhibition (IC50) stood at 780 nM.

`C[C@H](Cc1ccc(OCCCCOc2ccc(C[C@@H](C)NC[C@H](O)c3cccc(Cl)c3)cc2)cc1)NC[C@H](O)c1cccc(Cl)c1` returned a 50% inhibitory concentration (IC50) of 760 nM.

Consider `COc1cc(Br)c(S(=O)(=O)n2cc(CN3CCC(N)CC3)c3cc(Cl)ccc32)cc1OC`, for which the IC50 turned out to be 990 nM.

As for `O=C(Nc1ccc2c(c1)OCO2)NC1CCN(c2ccnc(NCc3ccc(F)cc3)n2)CC1`, the IC50 came to 940 nM.

Regarding `Cc1cc(Nc2ccccc2)nc(Nc2ccccc2)n1`, the half-maximal inhibitory concentration (IC50) came out at 800 nM.

Compound `Cc1cccc2[nH]c(-c3ccc(-c4cccc(CNCCCNS(C)(=O)=O)c4)cc3)nc12` gave an IC50 of 1220 nM.

`CC(C)CNCc1cccc(-c2cccc(CNCCCN3CCN(C)CC3)c2)c1`: the half-maximal inhibitory concentration (IC50) came out at 1180 nM.

With `O=C(NCCCCCCNCc1ccc(-c2ccccc2)cc1)Nc1ccc(Cl)c(Cl)c1`, the IC50 came to 960 nM.

Consider `CN(C)Cc1ccc(-c2cccc(Nc3nccc(NCC(O)c4ccccc4)n3)c2)cc1` (configuration not stated), for which the IC50 was 370 nM.

Regarding `COc1ccc2c(NN=Cc3ccc(N(C)C)cc3)ccnc2c1`, the IC50 was 660 nM.

`Cc1cc(N(CCO)CCCN2CCCCC2)nc(Nc2ccc(Cl)cc2)n1`: the concentration for half-maximal inhibition (IC50) is 550 nM.

With `CCN1CCN(c2cc(C)c3cc(NC(=O)c4cccc([N+](=O)[O-])c4)ccc3n2)CC1`, the IC50 was found to be 520 nM.

In the case of `CC(C)NCc1ccc(-c2cccc(-c3nc4ccc(C(F)(F)F)cc4[nH]3)c2)cc1`, the IC50 came out at 260 nM.

`CCOc1ccc(C2CCN(CCN3CCC(NC(=O)c4ccc(-c5ccc(C(F)(F)F)cc5)cc4)CC3)CC2)c(OCC2CC2)c1` showed a 50% inhibitory concentration (IC50) of 830 nM.

Take `CCCc1cc(=O)[nH]c(-n2nc(C)cc2NC(=O)C(CC)c2ccccc2)n1` (configuration not stated): the IC50 came out at 940 nM.

In turn, `CCOC(=O)c1ccc(NC(=O)Nc2ccc(-c3ccc(-c4nc5ccc(C(F)(F)F)cc5[nH]4)cc3)cc2)cc1` gave an IC50 of 270 nM.

The compound `CN1CCC(NCc2ccc(-c3cccc(-c4nc5ccccc5[nH]4)c3)cc2)CC1` returned an IC50 of 130 nM.

In turn, `CNc1ccc(CNCc2cccc(-c3ccc(-c4nc5ccccc5[nH]4)s3)c2)cc1` yielded an IC50 of 730 nM.

`Cc1cccc(C(=O)N2CCN(Cc3cccc(NC(=O)c4ccco4)c3)CC2)c1` came in with a 50% inhibitory concentration (IC50) of 760 nM.

As for `O=C(C=Cc1ccc(Cl)c(Cl)c1)NCCCCCN1CCC(CCNS(=O)(=O)c2ccc(F)cc2)CC1`, the IC50 came to 1090 nM.

`COc1ccccc1/C=C/C(=O)NC1CCC(CCN2CCc3ccc(-c4cc(C)no4)cc3CC2)CC1` (configuration not stated) registered an IC50 of 960 nM.

Take `c1cncc(-c2cc(N3CCc4ccccc4C3)nc(-c3ccncc3)n2)c1`: the IC50 was 40 nM.

As to `O=C(NC1CCCCC1)N(Cc1cccc(-c2ccc(CNCCc3ccccc3)cc2)c1)C1CCN(Cc2ccccc2)CC1`, the IC50 was 650 nM.

For the compound `CN(CCCNCc1cccc2ccccc12)CCCNCc1cccc2ccccc12`, the IC50 was 720 nM.

Take `COc1ccc(CC(=O)NC(CCN2CCC3(CC2)CN(S(C)(=O)=O)c2ccccc23)c2ccc(Cl)c(Cl)c2)cc1OC` (configuration not stated): the IC50 turned out to be 1000 nM.

Regarding `O=C(Nc1ccc(C(F)(F)F)cc1)c1cccc(S(=O)(=O)NCC2CCCN(CC3CCCCC3)C2)c1` (configuration not stated), the IC50 was found to be 750 nM.

On to `O=C(NCCCCN1CCC(c2c[nH]c3ccccc23)CC1)c1sc(-c2ccc(C(F)(F)F)cc2)nc1CO`, for which the IC50 is 1200 nM.

As to `CCC1(CC)CN(c2ccccc2)c2ccc(O)cc2S(=O)(=O)C1CC(C)C` (configuration not stated), the IC50 amounted to 400 nM.

The compound `CC(=O)Nc1ccc(OCCN(Cc2ccccc2C(F)(F)F)c2ccc(C#N)c(C(F)(F)F)c2)c(Cl)c1` had an IC50 of 620 nM.

`O=c1c2ccc(Sc3ccccn3)cc2n(-c2ccccc2)c2cc(Sc3ccccn3)ccc12` had an IC50 of 200 nM.

For `S=C(NCCCCCN1CCC(c2c[nH]c3ccccc23)CC1)Nc1cc(Cl)cc(Cl)c1`, the half-inhibitory concentration (IC50) came to 870 nM.

`COc1ccc(Nc2ncc(C#N)c(Nc3ccccc3C(N)=O)n2)cc1N1CCN(C)CC1` displayed an IC50 of 140 nM.

`OCCOCn1cnc2cnc(N[C@H]3OC[C@H](O)[C@@H](O)[C@@H]3O)nc21`: the IC50 came to 1640 nM.

`CC(Cc1ccc(OCCCCOc2ccccc2)cc1)NCCCc1nc2ccccc2[nH]1` (configuration not stated) gave an IC50 of 980 nM.

In turn, `CC(=O)NC1=NC(C)(C)N(OCCCOc2ccc(Cl)c(Cl)c2)C(NC(C)=O)=N1` showed an IC50 of 10 nM.

With `COc1ccc(-c2csc(NC(=O)CCC(=O)O)n2)cc1OC`, the IC50 worked out at 840 nM.

Take `Clc1ncnc2ncn(Cc3cccc(Br)c3)c12`: the IC50 came out at 1060 nM.

For `COc1cc(NC(=O)c2ccc3c(=O)n(Cc4ccccc4)c(=S)[nH]c3c2)cc(OC)c1OC`, the IC50 was 740 nM.

Regarding `O=C(Nc1ccc(Cl)c(-c2nc3ccccc3[nH]2)c1)c1ccc(-c2ccc(Cl)cc2)o1`, the IC50 is 790 nM.

Regarding `Cc1cc(NC2CCN(CC3CCCCC3)C2)nc(Nc2ccc(Cl)cc2)n1` (configuration not stated), the concentration for half-maximal inhibition (IC50) came out at 400 nM.

For the compound `CN1CCC(NCc2cccc(-c3ccc(S(=O)(=O)NCCN4CCCC4)s3)c2)CC1`, the IC50 stood at 930 nM.

Turning to `Cc1cccc2[nH]c(-c3cccc(-c4cccc(NC(=O)C(C)CN(C)C)c4)c3)nc12` (configuration not stated), the IC50 came out at 410 nM.

With `Cn1nc(-c2cccc(CNC3CCc4ccccc43)c2)c2cnc(NC3CCCC3)nc21` (configuration not stated), the IC50 was found to be 860 nM.

In the case of `N#Cc1cccc(C(=O)Nc2ccc(-c3ccc(CN4CCCC4)cc3)cc2)c1`, the half-inhibitory concentration (IC50) amounted to 1150 nM.

`CCN(CC)CCN(Cc1ccc(-c2ccc(C(F)(F)F)cc2)cc1)C(=O)Cn1c(CCc2c(F)ccc(F)c2F)nc(=O)c2ccccc21` returned a half-maximal inhibitory concentration (IC50) of 240 nM.

In the case of `Nc1nc(N)c2cc(NS(=O)(=O)c3ccc(-c4ccccc4)cc3)ccc2n1`, the IC50 turned out to be 700 nM.

Consider `COC(=O)C(C)NCC(=O)c1ccccc1` (configuration not stated), for which the IC50 was found to be 120 nM.

`COc1ccc(-n2c(=O)c3c(n4c(SC(C)C)nnc24)-c2ccccc2CC32CCCCC2)cc1` gave an IC50 of 500 nM.

Regarding `CC(C)(C)NS(=O)(=O)c1cc(C(=O)N2CCC(CCN3CCC(C(=O)c4ccc(F)cc4)CC3)(c3cccc(F)c3)CC2)c(Cl)cc1F`, the half-maximal inhibitory concentration (IC50) amounted to 750 nM.

For `O=C(Nc1cccc(-c2cccc(CN3CCCC3)c2)c1)c1cccc(Cl)c1`, the IC50 was 1180 nM.

Turning to `CS(=O)(=O)NCCCNCc1ccc(-c2ccc(-c3nc4ccc(C(F)(F)F)cc4[nH]3)cc2)cc1`, the IC50 is 460 nM.

The compound `Cc1cccc2[nH]c(-c3cccc(-c4cccc(CNCc5cccc(N)c5)c4)c3)nc12` showed an IC50 of 540 nM.

Take `Oc1c(CN2CCC(Cc3ccccc3)CC2)cc(Cl)c2cccnc12`: the IC50 is 880 nM.

`CC(=O)NCCNc1cc(N2CCc3ncnc(Nc4ccc(OCc5c(F)cccc5F)c(Cl)c4)c3C2)ncn1` displayed an IC50 of 160 nM.

As for `CCOc1ccc2c(c1)N(C(=O)C=Cc1ccccc1)C(C)(C)c1ssc(=S)c1-2`, the IC50 stood at 1150 nM.

As for `CCCCCCOc1ccc2ccccc2c1CNCCCCCCNCc1c(OCCCCCC)ccc2ccccc12`, the IC50 stood at 1060 nM.

Compound `CCNc1cc(C(=O)N[C@@H](Cc2ccccc2)[C@H](O)CNC(C)CC(C)C)c(F)c(N2CCCCS2(=O)=O)c1` (some centres not stated) came in with a concentration for half-maximal inhibition (IC50) of 1120 nM.

With `CCN(CC)CCNC(=O)c1ccc(N=Cc2c(O)[nH]c3ccc(S(=O)(=O)Cc4c(Cl)cccc4Cl)cc23)cc1`, the IC50 is 840 nM.

`O=C1C(c2ccccc2)=C(Nc2ccc(Cl)cc2)c2ccccc21` returned a 50% inhibitory concentration (IC50) of 610 nM.

In turn, `Nc1ncc(Cc2cc(Cl)c(N)c3ncccc23)c(N)n1` yielded an IC50 of 1120 nM.

In the case of `Cc1cc(C)c(C(=O)Nc2n[nH]c3nnc(-c4cccc(F)c4F)cc23)c(C)c1`, the IC50 was found to be 1070 nM.

In turn, `Clc1cc(Nc2ncnc3sc(C#Cc4ncc[nH]4)cc23)ccc1OCc1ccccn1` displayed an IC50 of 1110 nM.

For the compound `COc1cc(Cc2cnc(N)nc2N)cc(OCC(C)(C)C(=O)O)c1OC`, the IC50 was 1110 nM.
